From ChEMBL document CHEMBL1201862, “PubChem BioAssay data set” (2004) come the findings set out here.

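Protocol summary: plate cells (96-well), add compound at 5 concentrations, incubate 48 h, interpolate endpoints linearly. GI50 is the concentration that inhibits growth by half.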 The source made the active and inactive calls. No stated cut-off is given here; in the data, active = GI50 up to about 1.1 µM and inactive = higher. A value given as a limit tells only on which side of the number the result lay.

Some test systems named below: SK-MEL-28; OVCAR-5; HCT-15; COLO 205; UACC-257; HCT-116; HL-60; SF-539; MOLT-4; SK-MEL-5; ACHN; NCI-H23; SNB-19; OVCAR-4; IGROV-1; UO-31; CCRF-CEM; 786-0; A498; SF-268.
Assay in all cases: growth of human tumour cells (NCI), 48 h

For the molecule `CN(COC(=O)C(C)(C)C)c1nc(N(C)COC(=O)C(C)(C)C)nc(N(C)COC(=O)C(C)(C)C)n1`, the GI50 in the assay with SK-MEL-28 is > 100 µM (inactive); with OVCAR-5 it was > 100 µM (inactive); in the assay on HCT-15, 21 µM; in the assay on COLO 205, 16 µM (inactive); with UACC-257 it was 98.2 µM (inactive); in the assay with HCT-116 it was 18.8 µM (inactive). In addition, the GI50 was 29.2 µM (inactive) in the assay with HL-60; > 100 µM (inactive) in the assay with SF-539; 24.8 µM (inactive) in the assay with MOLT-4; 33.2 µM (inactive) in the assay on SK-MEL-5; 32.3 µM (inactive) with ACHN; > 100 µM (inactive) with NCI-H23. The GI50 in the assay with SNB-19 is > 100 µM (inactive); in the assay on OVCAR-4, 82.4 µM (inactive); in the assay with IGROV-1 it was > 100 µM (inactive); in the assay with UO-31 it was > 100 µM (inactive); with CCRF-CEM it was 16.7 µM (inactive); with 786-0, 28.6 µM (inactive). Further, the GI50 with A498 is > 100 µM (inactive); with SF-268 it was 34.8 µM (inactive).

Take `Cc1ccc(S(=O)(=O)NN=C2CCCCCCCCCCC2)cc1`: the GI50 is > 100 µM (inactive) in the assay on SK-MEL-28; > 100 µM (inactive) with OVCAR-5; more than 100 µM in the assay on HCT-15; > 100 µM (inactive) in the assay on COLO 205; > 100 µM (inactive) in the assay on UACC-257; > 100 µM (inactive) in the assay with HCT-116. Besides, the GI50 in the assay with HL-60, with SF-539, with MOLT-4, in the assay on SK-MEL-5, with ACHN and in the assay with NCI-H23 was > 100 µM (inactive) throughout. Besides, the GI50 in the assay on SNB-19, with OVCAR-4, in the assay with IGROV-1, in the assay on UO-31, in the assay on CCRF-CEM and in the assay on 786-0 was > 100 µM (inactive) each time. Further, the GI50 in the assay with A498 and in the assay on SF-268 was > 100 µM (inactive) in each case.

Regarding `CC12CCC(O)CC1CCC1C2CCC2(C)C(C(=O)CC(O)C(F)(F)F)CCC12` (stereo not given), the GI50 in the assay on SK-MEL-28 was 73.5 µM (inactive); with OVCAR-5 it was 26.4 µM (inactive); in the assay with HCT-15, 9.06 µM; in the assay with COLO 205, 12.2 µM (inactive); in the assay with UACC-257, 21.6 µM (inactive); in the assay with HCT-116, 28.4 µM (inactive). Also, the GI50 in the assay with HL-60 was 9.02 µM (inactive); with SF-539, 35.2 µM (inactive); in the assay on MOLT-4 it was 9.35 µM (inactive); in the assay on SK-MEL-5 it was 28.4 µM (inactive); with ACHN it was 47.6 µM (inactive); with NCI-H23, 40.9 µM (inactive). For the same molecule, the GI50 in the assay on SNB-19 was 24.9 µM (inactive); with OVCAR-4, > 100 µM (inactive); in the assay on IGROV-1, > 67.8 µM (inactive); in the assay with UO-31, 3.99 µM (inactive); in the assay with CCRF-CEM it was 25.6 µM (inactive); with 786-0, 7.46 µM (inactive). Moreover, the GI50 with A498 is 20.2 µM (inactive); with SF-268 it was 33.7 µM (inactive).

Consider `COC(=O)C(=O)C(C(=O)OC)C(=O)C(=O)Nc1cc(Cl)c(Cl)cc1Cl` (stereo not given), for which the GI50 was > 100 µM (inactive) in the assay with SK-MEL-28; > 100 µM (inactive) in the assay with OVCAR-5; 47.1 µM in the assay with HCT-15; 29.4 µM (inactive) in the assay on COLO 205; > 100 µM (inactive) with UACC-257; 22.4 µM (inactive) with HCT-116. For the same molecule, the GI50 in the assay on HL-60, in the assay with SF-539, in the assay on MOLT-4, in the assay with SK-MEL-5, in the assay with ACHN and in the assay on NCI-H23 was > 100 µM (inactive) each time. The GI50 is > 100 µM (inactive) with SNB-19; > 100 µM (inactive) in the assay with OVCAR-4; > 100 µM (inactive) in the assay on IGROV-1; > 100 µM (inactive) in the assay on UO-31; 31.6 µM (inactive) in the assay on CCRF-CEM; > 100 µM (inactive) in the assay on 786-0. The GI50 in the assay with A498 and in the assay on SF-268 was > 100 µM (inactive) each time.

`COC(=O)C1CCC(=O)N1C(c1ccc2c(c1)OCO2)c1cc(OC)c(OC)c(OC)c1` (stereo not given): the GI50 was > 100 µM (inactive) in the assay on SK-MEL-28; > 100 µM (inactive) in the assay on OVCAR-5; more than 100 µM with HCT-15; > 100 µM (inactive) with COLO 205; > 100 µM (inactive) in the assay with UACC-257; > 100 µM (inactive) in the assay with HCT-116. Also, the GI50 in the assay on HL-60, in the assay with SF-539, with MOLT-4, with SK-MEL-5, with ACHN and in the assay with NCI-H23 was > 100 µM (inactive) each time. The GI50 with SNB-19, with OVCAR-4, in the assay on IGROV-1, in the assay on UO-31, in the assay with CCRF-CEM and in the assay on 786-0 was > 100 µM (inactive) each time. The GI50 in the assay with A498 and in the assay on SF-268 was > 100 µM (inactive) throughout.

For the molecule `CC(C)(/N=N/C(C)(C)C(=O)NCCO)C(=O)NCCO`, the GI50 in the assay with SK-MEL-28 is > 100 µM (inactive); in the assay with OVCAR-5, > 100 µM (inactive); in the assay with HCT-15, more than 100 µM; in the assay on COLO 205, > 100 µM (inactive); in the assay on UACC-257, > 100 µM (inactive); in the assay on HCT-116, > 100 µM (inactive). Further, the GI50 with HL-60, in the assay on SF-539, in the assay with MOLT-4, with SK-MEL-5, in the assay on ACHN and in the assay with NCI-H23 was > 100 µM (inactive) throughout. In addition, the GI50 in the assay with SNB-19, with OVCAR-4, in the assay on IGROV-1, in the assay with UO-31, with CCRF-CEM and with 786-0 was > 100 µM (inactive) each time. Moreover, the GI50 in the assay on A498 and with SF-268 was > 100 µM (inactive) throughout.

Take `CC1(C)Oc2ccccc2OC1O` (stereo not given): the GI50 in the assay on SK-MEL-28 is > 100 µM (inactive); in the assay with OVCAR-5, > 100 µM (inactive); in the assay on HCT-15, more than 100 µM; with COLO 205 it was > 100 µM (inactive); in the assay with UACC-257, > 100 µM (inactive); in the assay on HCT-116, > 100 µM (inactive). In addition, the GI50 with HL-60, with SF-539, with MOLT-4, in the assay with SK-MEL-5, with ACHN and with NCI-H23 was > 100 µM (inactive) each time. Also, the GI50 in the assay on SNB-19, with OVCAR-4, in the assay with IGROV-1, in the assay on UO-31, in the assay on CCRF-CEM and in the assay on 786-0 was > 100 µM (inactive) in each case. Also, the GI50 with A498 and with SF-268 was > 100 µM (inactive) each time.

With `CCOC(=O)C1C(=O)CN2CCc3c([nH]c4ccccc34)C12C(=O)OCC` (stereo not given), the GI50 in the assay with SK-MEL-28 was > 100 µM (inactive); in the assay on OVCAR-5, > 100 µM (inactive); in the assay with HCT-15 it was more than 100 µM; in the assay with COLO 205, > 100 µM (inactive); in the assay with UACC-257, > 100 µM (inactive); in the assay with HCT-116 it was > 100 µM (inactive). Further, the GI50 in the assay on HL-60, with SF-539, with MOLT-4, with SK-MEL-5, with ACHN and in the assay with NCI-H23 was > 100 µM (inactive) each time. Moreover, the GI50 with SNB-19, in the assay on OVCAR-4, in the assay with IGROV-1, in the assay with UO-31, with CCRF-CEM and in the assay on 786-0 was > 100 µM (inactive) each time. For the same molecule, the GI50 in the assay with A498 and in the assay on SF-268 was > 100 µM (inactive) each time.

In the case of `S=C1/C(=N/c2ccccc2)N(c2ccccc2)/C(=N\c2ccccn2)N1c1ccccc1`, the GI50 in the assay with SK-MEL-28 is 16.8 µM (inactive); in the assay with OVCAR-5 it was 16.4 µM (inactive); in the assay with HCT-15, 8.18 µM; with COLO 205, 10.8 µM (inactive); in the assay with UACC-257 it was 14.3 µM (inactive); with HCT-116, 14.2 µM (inactive). Besides, the GI50 in the assay with HL-60 is > 100 µM (inactive); with SF-539 it was < 0.01 µM (active); with MOLT-4 it was > 100 µM (inactive); in the assay on SK-MEL-5 it was 13.9 µM (inactive); with ACHN, 4.32 µM (inactive); with NCI-H23, 12.3 µM (inactive). Also, the GI50 with SNB-19 is 16.3 µM (inactive); in the assay with OVCAR-4, 14.6 µM (inactive); in the assay with IGROV-1, 13.3 µM (inactive); with UO-31, 13.3 µM (inactive); with CCRF-CEM, > 100 µM (inactive); in the assay with 786-0, 14.5 µM (inactive). Moreover, the values for the GI50 in the assay with A498 and in the assay on SF-268 were 14.5 µM (inactive) and 16.6 µM (inactive), respectively.

As to `O=[N+]([O-])/C=C/c1cn(CCCCCCCCn2cc(/C=C/[N+](=O)[O-])c3ccccc32)c2ccccc12`, the GI50 with SK-MEL-28 is > 10 µM (inactive); in the assay with OVCAR-5, > 10 µM (inactive); in the assay on HCT-15, more than 10 µM; in the assay with COLO 205, > 10 µM (inactive); in the assay on UACC-257, > 10 µM (inactive); in the assay on HCT-116, 0.211 µM (active). Besides, the GI50 with HL-60, in the assay on SF-539, with MOLT-4, with SK-MEL-5, in the assay on ACHN and with NCI-H23 was > 10 µM (inactive) each time. Moreover, the GI50 in the assay on SNB-19, in the assay with OVCAR-4, with IGROV-1, in the assay with UO-31, in the assay on CCRF-CEM and in the assay with 786-0 was > 10 µM (inactive) each time. For the same molecule, the GI50 in the assay on A498 and with SF-268 was > 10 µM (inactive) each time.
